Patent US20100137398A1, “USE OF HDAC INHIBITORS FOR THE TREATMENT OF GASTROINTESTINAL CANCERS” (NOVARTIS AG, priority 2007, published 2010)

Tested on: Colo205 colon cancer xenograft
Assay: Colo205 colon cancer xenograft model, tumor growth inhibition and delay
Type: in vivo, Female athymic nude mice
Details: LBH589 30 mg/kg iv Mon/Wed/Fri for 3 weeks, 5-FU 75 mg/kg ip once a week for 3 weeks, or both
Experimental: Female athymic nude mice-were implanted subcutaneously with Col6205 colon cancer cells. When tumors reached a medan tumor volume of 220 mm3, mice were randomized into groups of 10 mice. Mice were treated with LBH589 at 30 mg/kg intravenously on Monday, Wednesday, Friday per week for 3 weeks, 75 mg/kg of 5-Fluorouracil intraperitoneally once a week for 3 weeks, or combination of the two agents. For tumor growth inhibition (FIG. 2A), compound activity was measured as the percent change in tumor volume of treated animals over control animals (% T/C). The percentage of regression was determined as the percent change in the final tumor volume at the end of the study over the starting tumor volume. For tumor growth delay (FIG. 2B), compound activity was measured as the change in median calculated time to the study end point (TTE), which was predefined as tumor volume of 1000 mm^3.

O=c1[nH]cc(F)c(=O)[nH]1 [5-FU, 5-Fluorouracil, reference compound]
tumor growth inhibition (TGI) and tumor growth delay (TGD): led to tumor growth inhibition (TGI) and tumor growth delay (TGD) | Median TTE (time to study end point, tumor volume of 1000 mm^3) (vehicle 39.5 days): 44.5 days
